Here are results for four compounds from patent US7998950B2, “Antiviral compounds” (Gilead Sciences, Inc., priority 2008, dated 2011).

pEC50: −log10 of the molar value.

This test has as its system HIV-IIIb. The experiment in a line: Antiviral assay in MT-2 cells infected with HIV-IIIb. The test is classed as cell-based. To be noted: Human immunodeficiency virus 1, IIIB, MT2, 120 h, MT-2 cells infected with HIV-IIIb, m.o.i. 0.01, 10% FBS, 5 days at 37° C., CellTiter-Glo chemiluminescence; read-out: EC50 in MT-2 cells.
In the case of `COCCNC(=O)c1c(O)c2ncc(Cc3ccc(F)cc3)c3c2n(c1=O)CCCN3` [compound 52], the pEC50 is 8.10.

`O=C(NCCN1CCOCC1)c1c(O)c2ncc(Cc3ccc(F)cc3)c3c2n(c1=O)CCN3` [compound 35]: the pEC50 was 8.26.

For `CNC(=O)c1c(O)c2ncc(Cc3ccc(F)cc3)c3c2n(c1=O)C[C@@H](C(=O)NC)O3` [A-65], the pEC50 is 8.20.

Turning to `O=C(NCCN1CCCS1(=O)=O)c1c(O)c2ncc(Cc3ccc(F)cc3)c3c2n(c1=O)CC(F)(F)CN3` [Example 162], the pEC50 was 8.34.
